Results published in patent US6914045B2, “Glycopeptide antibiotics” (Wyeth Holdings Corporation, priority 2001, dated 2005).
Converted amounts (≈) assume the structure as drawn. One block for each molecule: values may come before it.

Key:
Escherichia coli = assay: in vitro antibacterial evaluation, MIC by broth dilution; assay type: cell-based; details: 18 hours at 35° C.
Outline: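 Broth dilution in Muller-Hinton II medium per NCCLS standard M7-A2, with an inoculum of 5×10^5 CFU/mL and antibiotic tested over 64-0.06 μg/mL. MIC was taken as the lowest concentration inhibiting visible growth.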

Enterococcus sp. = assay: as above; assay type: cell-based; details: broth dilution, 18 hours at 35° C.
Outline: (§1)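 Inoculum 5×10^5 CFU/mL; concentrations 64 to 0.06 μg/mL; MIC defined as lowest inhibitory level. Conducted by broth dilution under NCCLS guidelines.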

Streptococcus sp. = assay: as above; assay type: cell-based; details: broth dilution, 18 hours at 35° C.
Outline: as §1

Staphylococcus sp. = assay: as above; assay type: cell-based; details: broth dilution, 18 hours at 35° C.; for MIC Staphylococcus aureus (ATCC 29213): strain ATCC 29213; for MIC Staphylococcus aureus (GC 1131): strain GC 1131; for MIC Staphylococcus aureus (GC 3051): strain GC 3051; for MIC Staphylococcus aureus (GC 3053): strain GC 3053; for MIC Staphylococcus aureus (GC 4541): strain GC 4541; for MIC Staphylococcus aureus (GC 4542): strain GC 4542; for MIC Staphylococcus aureus-SMITH (GC 4543): strain GC 4543; for MIC Staphylococcus aureus (GC 4544): strain GC 4544; for MIC Staphylococcus aureus (GC 4545): strain GC 4545; for MIC Staphylococcus haemolyticus (GC 4546): strain GC 4546; for MIC Coagulase Negative Staphylococcus (GC 4547): strain GC 4547; for MIC Coagulase Negative Staphylococcus (GC 4548): strain GC 4548; for MIC Coagulase Negative Staphylococcus (GC 4549): strain GC 4549; for MIC Coagulase Negative Staphylococcus (GC 4551): strain GC 4551
Outline: as §1

[1] = anatomic pathology (histopathology of heart and kidney) in mice; assay type: in vivo; details: CD-1 mice, 20 mg/kg intravenously daily for 9 days, necropsy day 10, microscopic histopathology
Method: Samples of tissues from necropsied mice were formalin-fixed, paraffin-embedded, sectioned, stained with hematoxylin and eosin, and examined microscopically. Histopathologic findings were recorded. These findings were subjectively graded on a scale corresponding to slight, mild, moderate, marked and severe as compared to untreated controls.

[2] = Enterococcus faecalis (ATCC 29212)
[3] = Enterococcus faecalis (GC 4552)
[4] = Enterococcus faecalis (GC 4553)
[5] = Enterococcus faecalis (GC 4554)
[6] = Enterococcus faecalis (GC 6189)

- MIC Escherichia coli (ATCC 25922) (Escherichia coli): >128 µg/mL
- MIC Escherichia coli (GC 4559) (Escherichia coli): >128 µg/mL
- MIC Escherichia coli (GC 4560) (Escherichia coli): 8 µg/mL (≈ 5.47 µM)
- MIC Enterococcus avium (GC 4558) (Enterococcus sp.; Enterococcus avium (GC 4558)): 128 µg/mL (≈ 87.6 µM)
- MIC Enterococcus faecalis (ATCC 29212) (Enterococcus sp.; [2]): >128 µg/mL
- MIC Enterococcus faecalis (GC 4552) (Enterococcus sp.; [3]): >128 µg/mL
- MIC Enterococcus faecalis (GC 4553) (Enterococcus sp.; [4]): >128 µg/mL
- MIC Enterococcus faecalis (GC 4554) (Enterococcus sp.; [5]): >128 µg/mL
- MIC Enterococcus faecalis (GC 6189) (Enterococcus sp.; [6]): >128 µg/mL
- MIC Enterococcus faecium (GC 2243) (Enterococcus sp.; Enterococcus faecium (GC 2243)): >128 µg/mL
- MIC Enterococcus faecium (GC 4556) (Enterococcus sp.; Enterococcus faecium (GC 4556)): >128 µg/mL
- MIC Enterococcus faecium (GC 4557) (Enterococcus sp.; Enterococcus faecium (GC 4557)): >128 µg/mL
- MIC Enterococcus avium (GC 4558) (Enterococcus sp.): 128 µg/mL (≈ 87.6 µM)
- MIC Enterococcus faecalis (ATCC 29212) (Enterococcus sp.): >128 µg/mL
- MIC Enterococcus faecalis (GC 2242) (Enterococcus sp.): >128 µg/mL
- MIC Enterococcus faecalis (GC 2691) (Enterococcus sp.): >128 µg/mL
- MIC Enterococcus faecalis (GC 3059) (Enterococcus sp.): >128 µg/mL
- MIC Enterococcus faecalis (GC 4552) (Enterococcus sp.): >128 µg/mL
- MIC Enterococcus faecalis (GC 4553) (Enterococcus sp.): >128 µg/mL
- MIC Enterococcus faecalis (GC 4554) (Enterococcus sp.): >128 µg/mL
- MIC Enterococcus faecalis (GC 6189) (Enterococcus sp.): >128 µg/mL
- MIC Enterococcus faecium (GC 2243) (Enterococcus sp.): >128 µg/mL
- MIC Enterococcus faecium (GC 4556) (Enterococcus sp.): >128 µg/mL
- MIC Enterococcus faecium (GC 4557) (Enterococcus sp.): >128 µg/mL
- MIC Enterococcus faecalis (GC 2242) (Enterococcus sp.; strain GC 2242): >128 µg/mL
- MIC Enterococcus faecalis (GC 2691) (Enterococcus sp.; strain GC 2691): >128 µg/mL
- MIC Enterococcus faecalis (GC 3059) (Enterococcus sp.; strain GC 3059): >128 µg/mL
- MIC Streptococcus agalactiae (GC 4564) (Streptococcus sp.): >128 µg/mL
- MIC Streptococcus pneumoniae (ATCC 6301) (Streptococcus sp.): >128 µg/mL
- MIC Streptococcus pneumoniae (GC 1894) (Streptococcus sp.): >128 µg/mL
- MIC Streptococcus pneumoniae (GC 4565) (Streptococcus sp.): >128 µg/mL
- MIC Streptococcus pyogenes (GC 4563) (Streptococcus sp.): >128 µg/mL
- MIC Streptococcus pneumoniae (ATCC 6301) (Streptococcus sp.; strain ATCC 6301): >128 µg/mL
- MIC Streptococcus pneumoniae (GC 1894) (Streptococcus sp.; strain GC 1894): >128 µg/mL
- MIC Streptococcus pyogenes (GC 4563) (Streptococcus sp.; strain GC 4563): >128 µg/mL
- MIC Streptococcus agalactiae (GC 4564) (Streptococcus sp.; strain GC 4564): >128 µg/mL
- MIC Streptococcus pneumoniae (GC 4565) (Streptococcus sp.; strain GC 4565): >128 µg/mL
- MIC Staphylococcus aureus (ATCC 29213) (Staphylococcus sp.): >128 µg/mL
- MIC Staphylococcus aureus (GC 1131) (Staphylococcus sp.): >128 µg/mL
- MIC Staphylococcus aureus (GC 3051) (Staphylococcus sp.): >128 µg/mL
- MIC Staphylococcus aureus (GC 3053) (Staphylococcus sp.): >128 µg/mL
- MIC Staphylococcus aureus (GC 4541) (Staphylococcus sp.): >128 µg/mL
- MIC Staphylococcus aureus (GC 4542) (Staphylococcus sp.): >128 µg/mL
- MIC Staphylococcus aureus-SMITH (GC 4543) (Staphylococcus sp.): >128 µg/mL
- MIC Staphylococcus aureus (GC 4544) (Staphylococcus sp.): >128 µg/mL
- MIC Staphylococcus aureus (GC 4545) (Staphylococcus sp.): >128 µg/mL
- MIC Coagulase Negative Staphylococcus (GC 4547) (Staphylococcus sp.): >128 µg/mL
- MIC Coagulase Negative Staphylococcus (GC 4548) (Staphylococcus sp.): >128 µg/mL
- MIC Coagulase Negative Staphylococcus (GC 4549) (Staphylococcus sp.): >128 µg/mL
- MIC Coagulase Negative Staphylococcus (GC 4551) (Staphylococcus sp.): >128 µg/mL
Structure (SMILES): CC(c1ccccc1)C1NC(=O)CNC(=O)C(CO)NC(=O)C(C(O)C2CN(Cc3ccc(-c4ccccc4)cc3)C(=N)N2C2OC(CO)C(O)C(O)C2O)NC(=O)C(C(O)C2CNC(=N)N2)NC(=O)C(Cc2ccc(OC3OC(CO)C(OC4OC(CO)C(O)C(O)C4O)C(O)C3O)cc2)NC1=O (centres unmarked) [Example 66a]
- MIC Staphylococcus haemolyticus (GC 4546) (Staphylococcus sp.): >128 µg/mL
- Anatomical Pathology (Day 10), Heart [1]: 0
- Anatomical Pathology (Day 10), Kidney [1]: ++

- MIC Escherichia coli (ATCC 25922) (Escherichia coli): >128 µg/mL
- MIC Escherichia coli (GC 4559) (Escherichia coli): >128 µg/mL
- MIC Escherichia coli (GC 4560) (Escherichia coli): 32 µg/mL (≈ 22.3 µM)
- MIC Enterococcus avium (GC 4558) (Enterococcus sp.; Enterococcus avium (GC 4558)): 64 µg/mL (≈ 44.6 µM)
- MIC Enterococcus faecalis (ATCC 29212) (Enterococcus sp.; [2]): 128 µg/mL (≈ 89.2 µM)
- MIC Enterococcus faecalis (GC 4552) (Enterococcus sp.; [3]): 128 µg/mL (≈ 89.2 µM)
- MIC Enterococcus faecalis (GC 4553) (Enterococcus sp.; [4]): 128 µg/mL (≈ 89.2 µM)
- MIC Enterococcus faecalis (GC 4554) (Enterococcus sp.; [5]): >128 µg/mL
- MIC Enterococcus faecalis (GC 6189) (Enterococcus sp.; [6]): 128 µg/mL (≈ 89.2 µM)
- MIC Enterococcus faecium (GC 2243) (Enterococcus sp.; Enterococcus faecium (GC 2243)): >128 µg/mL
- MIC Enterococcus faecium (GC 4556) (Enterococcus sp.; Enterococcus faecium (GC 4556)): >128 µg/mL
- MIC Enterococcus faecium (GC 4557) (Enterococcus sp.; Enterococcus faecium (GC 4557)): 128 µg/mL (≈ 89.2 µM)
- MIC Enterococcus avium (GC 4558) (Enterococcus sp.): 64 µg/mL (≈ 44.6 µM)
- MIC Enterococcus faecalis (ATCC 29212) (Enterococcus sp.): 128 µg/mL (≈ 89.2 µM)
- MIC Enterococcus faecalis (GC 2242) (Enterococcus sp.): 128 µg/mL (≈ 89.2 µM)
- MIC Enterococcus faecalis (GC 2691) (Enterococcus sp.): 128 µg/mL (≈ 89.2 µM)
- MIC Enterococcus faecalis (GC 3059) (Enterococcus sp.): 128 µg/mL (≈ 89.2 µM)
- MIC Enterococcus faecalis (GC 4552) (Enterococcus sp.): 128 µg/mL (≈ 89.2 µM)
- MIC Enterococcus faecalis (GC 4553) (Enterococcus sp.): 128 µg/mL (≈ 89.2 µM)
- MIC Enterococcus faecalis (GC 4554) (Enterococcus sp.): >128 µg/mL
- MIC Enterococcus faecalis (GC 6189) (Enterococcus sp.): 128 µg/mL (≈ 89.2 µM)
- MIC Enterococcus faecium (GC 2243) (Enterococcus sp.): >128 µg/mL
- MIC Enterococcus faecium (GC 4556) (Enterococcus sp.): >128 µg/mL
- MIC Enterococcus faecium (GC 4557) (Enterococcus sp.): 128 µg/mL (≈ 89.2 µM)
- MIC Enterococcus faecalis (GC 2242) (Enterococcus sp.; strain GC 2242): 128 µg/mL (≈ 89.2 µM)
- MIC Enterococcus faecalis (GC 2691) (Enterococcus sp.; strain GC 2691): 128 µg/mL (≈ 89.2 µM)
- MIC Enterococcus faecalis (GC 3059) (Enterococcus sp.; strain GC 3059): 128 µg/mL (≈ 89.2 µM)
- MIC Streptococcus agalactiae (GC 4564) (Streptococcus sp.): 128 µg/mL (≈ 89.2 µM)
- MIC Streptococcus pneumoniae (ATCC 6301) (Streptococcus sp.): 128 µg/mL (≈ 89.2 µM)
- MIC Streptococcus pneumoniae (GC 1894) (Streptococcus sp.): 64 µg/mL (≈ 44.6 µM)
- MIC Streptococcus pneumoniae (GC 4565) (Streptococcus sp.): 128 µg/mL (≈ 89.2 µM)
- MIC Streptococcus pyogenes (GC 4563) (Streptococcus sp.): 128 µg/mL (≈ 89.2 µM)
- MIC Streptococcus pneumoniae (ATCC 6301) (Streptococcus sp.; strain ATCC 6301): 128 µg/mL (≈ 89.2 µM)
- MIC Streptococcus pneumoniae (GC 1894) (Streptococcus sp.; strain GC 1894): 64 µg/mL (≈ 44.6 µM)
- MIC Streptococcus pyogenes (GC 4563) (Streptococcus sp.; strain GC 4563): 128 µg/mL (≈ 89.2 µM)
- MIC Streptococcus agalactiae (GC 4564) (Streptococcus sp.; strain GC 4564): 128 µg/mL (≈ 89.2 µM)
- MIC Streptococcus pneumoniae (GC 4565) (Streptococcus sp.; strain GC 4565): 128 µg/mL (≈ 89.2 µM)
- MIC Staphylococcus aureus (ATCC 29213) (Staphylococcus sp.): >128 µg/mL
- MIC Staphylococcus aureus (GC 1131) (Staphylococcus sp.): >128 µg/mL
- MIC Staphylococcus aureus (GC 3051) (Staphylococcus sp.): >128 µg/mL
- MIC Staphylococcus aureus (GC 3053) (Staphylococcus sp.): >128 µg/mL
- MIC Staphylococcus aureus (GC 4541) (Staphylococcus sp.): >128 µg/mL
- MIC Staphylococcus aureus (GC 4542) (Staphylococcus sp.): >128 µg/mL
- MIC Staphylococcus aureus-SMITH (GC 4543) (Staphylococcus sp.): >128 µg/mL
- MIC Staphylococcus aureus (GC 4544) (Staphylococcus sp.): >128 µg/mL
- MIC Staphylococcus aureus (GC 4545) (Staphylococcus sp.): >128 µg/mL
- MIC Coagulase Negative Staphylococcus (GC 4547) (Staphylococcus sp.): 128 µg/mL (≈ 89.2 µM)
- MIC Coagulase Negative Staphylococcus (GC 4548) (Staphylococcus sp.): >128 µg/mL
- MIC Coagulase Negative Staphylococcus (GC 4549) (Staphylococcus sp.): >128 µg/mL
- MIC Coagulase Negative Staphylococcus (GC 4551) (Staphylococcus sp.): >128 µg/mL
- MIC Coagulase Negative Staphylococcus (GC 6257) (Staphylococcus sp.; strain GC 6257): >128 µg/mL
Structure (SMILES): CC(c1ccccc1)C1NC(=O)CNC(=O)C(CO)NC(=O)C(C(O)C2CN(Cc3ccc4ccccc4c3)C(=N)N2C2OC(CO)C(O)C(O)C2O)NC(=O)C(C(O)C2CNC(=N)N2)NC(=O)C(Cc2ccc(OC3OC(CO)C(OC4OC(CO)C(O)C(O)C4O)C(O)C3O)cc2)NC1=O (stereo not drawn) [Example 67, Cyclo[glycyl-β-methylphenylalanyl-O-(4-O-hexopyranosylhexoyranosyl)tyrosyl-3-(2-iminoimidazolidin-4-yl)seryl-3-[3-hexopyranosyl-2-imino-1-(2-naphthylmethyl)-imidazolidin-4-yl]-serylseryl]]
- MIC Staphylococcus haemolyticus (GC 4546) (Staphylococcus sp.): >128 µg/mL
- Anatomical Pathology (Day 10), Heart [1]: 0
- Anatomical Pathology (Day 10), Kidney [1]: 0
